Key:
Test in all cases: relative viability (nuclei count vs DMSO), 5 days (fraction); higher = more cells survive
ALW-II-49-7 + Vorinostat = compound: Cc1ccc(C(=O)Nc2cccc(C(F)(F)F)c2)cc1Nc1cncc(C(N)=O)c1 [ALW-II-49-7] + O=C(CCCCCCC(=O)Nc1ccccc1)NO [Vorinostat] (partner 1 µM)
In short: (§1)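 Relative viability was taken as the ratio of nuclei in treated wells to nuclei in vehicle wells. Lung cancer cell lines in 1536-well plates received compounds by pin tool one day after seeding, either one drug alone or a fixed anchor-drug dose plus five library-drug doses (not always all listed) in √10 steps. Nuclei were counted on 4× images after 5 days of treatment, and values are medians of duplicate plates.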

XMD13-2 + OSI-027 = compound: C1CC1C(=O)NC2=NNC3=C2C=CC(=C3)C4=CC(=CC=C4)C(=O)NC5CC5 [XMD13-2] + COc1cccc2cc(-c3nc([C@H]4CC[C@H](C(=O)O)CC4)n4ncnc(N)c34)[nH]c12 [OSI-027] (partner 0.5 µM)
In short: as §1

ALW-II-49-7 + Crizotinib = compound: Cc1ccc(C(=O)Nc2cccc(C(F)(F)F)c2)cc1Nc1cncc(C(N)=O)c1 [ALW-II-49-7] + C[C@@H](Oc1cc(-c2cnn(C3CCNCC3)c2)cnc1N)c1c(Cl)ccc(F)c1Cl [Crizotinib] (partner 1 µM)
In short: as §1

Dasatinib + Foretinib = compound: Cc1nc(Nc2ncc(C(=O)Nc3c(C)cccc3Cl)s2)cc(N2CCN(CCO)CC2)n1 [Dasatinib] + COc1cc2c(Oc3ccc(NC(=O)C4(C(=O)Nc5ccc(F)cc5)CC4)cc3F)ccnc2cc1OCCCN1CCOCC1 [Foretinib] (partner 0.25 µM)
In short: as §1

UMC-11
relative viability (ALW-II-49-7 + Vorinostat; first compound 0.08 µM): 0.36
relative viability (ALW-II-49-7 + Vorinostat; first compound 0.253 µM): 0.381
relative viability (ALW-II-49-7 + Vorinostat; first compound 0.8 µM): 0.324
relative viability (ALW-II-49-7 + Vorinostat; first compound 2.53 µM): 0.357
relative viability (ALW-II-49-7 + Vorinostat; first compound 8 µM): 0.305
relative viability (XMD13-2 + OSI-027; first compound 0.05 µM): 0.438
relative viability (XMD13-2 + OSI-027; first compound 0.1581 µM): 0.404
relative viability (XMD13-2 + OSI-027; first compound 0.5 µM): 0.474
relative viability (XMD13-2 + OSI-027; first compound 1.581 µM): 0.453
relative viability (XMD13-2 + OSI-027; first compound 5 µM): 0.351
relative viability (ALW-II-49-7 + Crizotinib; first compound 0.08 µM): 0.531
relative viability (ALW-II-49-7 + Crizotinib; first compound 0.253 µM): 0.613
relative viability (ALW-II-49-7 + Crizotinib; first compound 2.53 µM): 0.755
relative viability (ALW-II-49-7 + Crizotinib; first compound 8 µM): 0.553
relative viability (Dasatinib + Foretinib; first compound 0.005 µM): 0.912
relative viability (Dasatinib + Foretinib; first compound 0.01581 µM): 0.699
relative viability (Dasatinib + Foretinib; first compound 0.05 µM): 0.696
relative viability (Dasatinib + Foretinib; first compound 0.1581 µM): 0.379
relative viability (Dasatinib + Foretinib; first compound 0.5 µM): 0.276

Reference: the supplement of paper PMC10307832
